# Data taken from paper PMC9667777, “A fragment-based approach leading to the discovery of inhibitors of CK2α with a novel mechanism of action” (RSC Medicinal Chemistry, 2022).
# Values joined by “and” are separate entries in the source; they are usually repeats but may differ in a detail not shown here. Identical values can stand only once. Like-named read-outs stand apart in the source and are kept apart here.
# Key:
# CK2α [1] = target: T1, CK2α (Homo sapiens, UniProt P68400)
# [2] = system: CK2α-dependent phosphorylation of AKT1 Ser129 and CDC37 Ser13; conditions: HCT116 cells
# CK2α [3] = target: T1, CK2α; remark: listed apart in the source
# HCT116 cells [4] = test: cells; conditions: Homo sapiens, HCT-116, 72 h, read-out: GI50 HCT116, 72 hours; mean ± SEM from three experiments run in triplicate
# Jurkat cells = test: cells; conditions: Homo sapiens, 72 h, read-out: GI50 Jurkat
# A549 cells = test: cells; conditions: Homo sapiens, 72 h, read-out: GI50 A459
# CK2α [5] = target: T1, CK2α; test: biochemical; conditions: for inhibition at 50 µM: read-out: % inhibition at 50 μM; for inhibition at 500 µM: read-out: % inhibition at 500 μM; for inhibition at 1000 µM: read-out: % inhibition at 1 mM
# HCT116 cells [6] = conditions: read-out: GI50 HCT116; 72 hours; mean ± SEM from three experiments run in triplicate
# T1 sequence (P68400 whole entry): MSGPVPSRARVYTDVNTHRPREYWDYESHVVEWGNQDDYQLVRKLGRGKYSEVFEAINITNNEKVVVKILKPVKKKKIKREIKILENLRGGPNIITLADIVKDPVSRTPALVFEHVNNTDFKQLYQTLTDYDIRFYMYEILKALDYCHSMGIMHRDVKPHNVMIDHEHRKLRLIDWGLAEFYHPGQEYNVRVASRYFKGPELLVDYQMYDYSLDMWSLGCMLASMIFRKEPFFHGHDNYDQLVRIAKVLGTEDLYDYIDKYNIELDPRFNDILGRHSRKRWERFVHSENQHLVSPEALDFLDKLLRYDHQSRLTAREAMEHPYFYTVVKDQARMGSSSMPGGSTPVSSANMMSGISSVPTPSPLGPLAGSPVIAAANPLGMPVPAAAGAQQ
SMILES,Ligand efficiency (CK2α [1]),inhibition at 50 µM (CK2α [5]),further results
N#CCc1c[nH]c2ccc(Br)cc12 [Compound 8],0.44 and 0.44 kcal mol-1 and 0.44 kJ mol^−1,32 ± 7%,"inhibition of CK2α-dependent phosphorylation of Ser129 in AKT1 ([2]; twice the GI50 (170 μM), 24, 48 or 72 hours): good inhibition; inhibition of phosphorylation of Ser13 in CDC37 ([2]; twice the GI50 (170 μM), 48 h): significantly inhibited; binding to CK2α by CPMG signal (CK2α [3]; 500 μM compound + 7 μM CK2α): binds to CK2α; binding to CK2α in the presence of CX4945 (CK2α [3]; 500 μM compound + 50 μM CX4945 + 7 μM CK2α): significantly reduced; binding to CK2α in the presence of αD-binder (CK2α [3]; 500 μM compound + 500 μM αD-binder + 7 μM CK2α): largely inhibited; GI50 (HCT116 cells [4]): 88 ± 7 µM; GI50 (Jurkat cells): 55 ± 2 µM; GI50 (A549 cells): 29 ± 7 µM; inhibition at 500 µM (CK2α [5]): 87 ± 11%; inhibition at 1000 µM (CK2α [5]): 105 ± 9%"
N#CCc1n[nH]c2cc(Cl)c(Br)cc12 [Compound 17],0.52 kcal/mol,98 ± 3%,
N#CCc1c[nH]c2ccc(C(F)(F)F)cc12 [Compound 14],,39 ± 10%,
CCCc1cn(Cc2c[nH]c3ccc(Br)cc23)nn1 [Compound 21],,11 ± 6%,
N#CCc1c[nH]c2cc(Br)c(Br)cc12 [Compound 15],,65 ± 10%,
Brc1ccc2[nH]cc(Cc3nccs3)c2c1 [Compound 18],,13 ± 4%,
Brc1ccc2[nH]ccc2c1 [Compound 3],,,inhibition at 500 µM (CK2α [5]): 22 ± 5%; inhibition at 1000 µM (CK2α [5]): 50 ± 13%
CNCc1c[nH]c2ccc(Br)cc12 [Compound 22],,21 ± 5%,
N#CCc1n[nH]c2cc(Br)c(Br)cc12 [Compound 16],0.53 kcal/mol,95 ± 4%,
N#CCc1n[nH]c2ccc(Br)cc12 [Compound 10],,97 ± 3%,
N=C(Cc1c[nH]c2ccc(Br)cc12)NO [Compound 23],,13 ± 5%,
Brc1ccc2[nH]cc(Cc3ccc[nH]3)c2c1 [Compound 20],,8 ± 3%,
Clc1cc2[nH]ccc2cc1Br [Compound 6],0.44 and 0.44 kJ mol^−1,,inhibition at 500 µM (CK2α [5]): 93 ± 5%
Brc1ccc2[nH]ncc2c1 [Compound 7],0.47 and 0.47 kJ mol^−1,,inhibition at 500 µM (CK2α [5]): 66 ± 5%; inhibition at 1000 µM (CK2α [5]): 84 ± 6%
N#CCc1c[nH]c2cc(Cl)c(Br)cc12 [Compound 9],,103 ± 6%,
"O=C(O)c1ccc2c(c1)nc(Nc1cccc(Cl)c1)c1ccncc12 [CX4945, reference compound]",,,GI50 (HCT116 cells [6]): 4 µM; GI50 (HCT116 cells [4]): 4.8 µM
